Key:
HSP90a protein = target: T1, HSP90a protein (Homo sapiens, UniProt P07900); test: HSP90α-binding fluorescent polarization (FP) assay, FITC-geldanamycin probe; details: FP competition with FITC-geldanamycin, 5 nM, 120 min at 25° C.
T1 construct: purchased BPS Bioscience 50298
Protocol: HSP90α-Binding Fluorescent Polarization (FP) Assay
Binding of test compounds to HSP90a protein was measured by fluorescent polarization (FP) using the HSP90a (N-terminal) Assay Kit (BPS Bioscience, #50298), following the manufacturer's instructions, except as noted. Fluorescently labeled HSP90-binding compounds, either the provided FITC-geldanamycin (5 nM final concentration) or RNK04010, a triazolone-based HSP90 binding small molecule labeled with BODIPY through a piperizine-phenyl linker (5 nM final concentration) were employed. A 2.5-fold serial dilution of each test compound ranging from 20 μM to 5.2 nM was assayed for binding to HSP90a. After the final step of adding HSP90a protein to each assay well, plates were mixed by brief shaking, incubated at 25° C. for 120 min for FITC-geldanamycin or 300 min for RNK04010, and fluorescence was measured using a PerkinElmer EnVision Plate Reader.

[1] = tested on: MIA PaCa-2 human pancreatic carcinoma; test: MIA PaCa-2 CCK-8 proliferation assay; format: cell-based; details: Homo sapiens, MIA PaCa-2, 72 h, MIA PaCa-2 cells
In short: (§1)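 MIA PaCa-2 (2 copies KRAS(G12C)), NCI-H358 and NCI-H23 (1 copy KRAS(G12C) each) were exposed to compound in 3-fold serial dilutions from 20 μM to 1.02 nM. Viability was read as CCK-8 absorbance, and % inhibition was computed against DMSO-treated cells, with cell-free DMSO medium as blank.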

[2] = tested on: NCI-H358 human non-small cell lung cancer; test: NCI-H358 CCK-8 proliferation assay; format: cell-based; details: NCI-H358 cells, 72 hr
In short: as §1

SMILES	IC50 (HSP90a protein) [nM]	EC50 [1] [nM]	EC50 [2] [nM]
C=C(F)C(=O)N1CCN(c2nc(N3CCN(Cc4ccc(-n5c(O)nnc5-c5cc(CC)c(O)cc5O)cc4)CC3)nc3c2CCN(c2cccc4cccc(Cl)c24)C3)C[C@@H]1CC#N [Compound 143, (S)-2-(4-(7-(8-chloronaphthalen-1-yl)-2-(4-(4-(3-(5-ethyl-2,4-dihydroxyphenyl)-5-hydroxy-4H-1,2,4-triazol-4-yl)benzyl)piperazin-1-yl)-5,6,7,8-tetrahydropyrido[3,4-d]pyrimidin-4-yl)-1-(2-fluoroacryloyl)piperazin-2-yl)acetonitrile]	> 1000		> 1000
CC(C)c1cc(-c2nnc(O)n2-c2ccc(CN3CCN(C4CCN(c5nc6c(c(N7CCN(C(=O)C(F)(F)F)[C@@H](CC#N)C7)n5)CCN(c5cccc7cccc(Cl)c57)C6)CC4)CC3)cc2)c(O)cc1O [Compound 136, (S)-2-(4-(7-(8-chloronaphthalen-1-yl)-2-(4-(4-(4-(3-(2,4-dihydroxy-5-isopropylphenyl)-5-hydroxy-4H-1,2,4-triazol-4-yl)benzyl)piperazin-1-yl)piperidin-1-yl)-5,6,7,8-tetrahydropyrido[3,4-d]pyrimidin-4-yl)-1-(2,2,2-trifluoroacetyl)piperazin-2-yl)acetonitrile]	> 1000		100 to 1000
C=C(F)C(=O)N1CCN(c2nc(OC[C@@H]3CCN(C(=O)C4CCN(Cc5ccc(-n6c(O)nnc6-c6cc(C(C)C)c(O)cc6O)cc5)CC4)C3)nc3c2CCN(c2cccc4cccc(Cl)c24)C3)C[C@@H]1CC#N [Compound 145, 2-((S)-4-(7-(8-chloronaphthalen-1-yl)-2-(((R)-1-(1-(4-(3-(2,4-dihydroxy-5-isopropylphenyl)-5-hydroxy-4H-1,2,4-triazol-4-yl)benzyl)piperidine-4-carbonyl)pyrrolidin-3-yl)methoxy)-5,6,7,8-tetrahydropyrido[3,4-d]pyrimidin-4-yl)-1-(2-fluoroacryloyl)piperazin-2-yl)acetonitrile, acetic acid]	100 to 1000	100 to 1000	100 to 1000
CCC(=O)N1CCN(c2nc(OC[C@@H]3CCCN3C(=O)C3CCN(Cc4ccc(-n5c(O)nnc5-c5cc(C(C)C)c(O)cc5O)cc4)CC3)nc3c2CCN(c2cccc4cccc(Cl)c24)C3)C[C@@H]1CC#N [Compound 140, 2-((S)-4-(7-(8-chloronaphthalen-1-yl)-2-(((S)-1-(1-(4-(3-(2,4-dihydroxy-5-isopropylphenyl)-5-hydroxy-4H-1,2,4-triazol-4-yl)benzyl)piperidine-4-carbonyl)pyrrolidin-2-yl)methoxy)-5,6,7,8-tetrahydropyrido[3,4-d]pyrimidin-4-yl)-1-propionylpiperazin-2-yl)acetonitrile]	100 to 1000		100 to 1000
C=C(F)C(=O)N1CCN(c2nc(N3CCC(CN4CCN(Cc5ccc(-n6c(C(=O)NCC(F)(F)F)nnc6-c6cc(CC)c(O)cc6O)cc5)CC4)CC3)nc3c2CCN(c2cccc4cccc(Cl)c24)C3)C[C@@H]1CC#N [Compound 138, (S)-4-(4-((4-((1-(7-(8-chloronaphthalen-1-yl)-4-(3-(cyanomethyl)-4-(2-fluoroacryloyl)piperazin-1-yl)-5,6,7,8-tetrahydropyrido[3,4-d]pyrimidin-2-yl)piperidin-4-yl)methyl)piperazin-1-yl)methyl)phenyl)-5-(5-ethyl-2,4-dihydroxyphenyl)-N-(2,2,2-trifluoroethyl)-4H-1,2,4-triazole-3-carboxamide]	> 1000		> 1000
CCC(=O)N1CCN(c2nc(OCCC(=O)NCCc3ccc(CN4CCC(Cc5ccc(-n6c(C(=O)NCC(F)(F)F)nnc6-c6cc(C(C)C)c(O)cc6O)cc5)CC4)cc3)nc3c2CCN(c2cc(O)cc4ccccc24)C3)CC1 [Compound 151, 5-(2,4-dihydroxy-5-isopropylphenyl)-4-(4-((1-(4-(2-(3-((7-(3-hydroxynaphthalen-1-yl)-4-(4-propionylpiperazin-1-yl)-5,6,7,8-tetrahydropyrido[3,4-d]pyrimidin-2-yl)oxy)propanamido)ethyl)benzyl)piperidin-4-yl)methyl)phenyl)-N-(2,2,2-trifluoroethyl)-4H-1,2,4-triazole-3-carboxamide]	100 to 1000		100 to 1000

Second part, the compound after the results:

IC50 (HSP90a protein) [nM]	EC50 [1] [nM]	EC50 [2] [nM]	SMILES
< 100	100 to 1000	100 to 1000	CCC(=O)N1CCN(c2nc(OCC3CCN(C(=O)C4CCN(Cc5ccc(-n6c(O)nnc6-c6cc(C(C)C)c(O)cc6O)cc5)CC4)CC3)nc3c2CCN(c2cccc4cccc(Cl)c24)C3)C[C@@H]1CC#N [Compound 147, (S)-2-(4-(7-(8-chloronaphthalen-1-yl)-2-((1-(1-(4-(3-(2,4-dihydroxy-5-isopropylphenyl)-5-hydroxy-4H-1,2,4-triazol-4-yl)benzyl)piperidine-4-carbonyl)piperidin-4-yl)methoxy)-5,6,7,8-tetrahydropyrido[3,4-d]pyrimidin-4-yl)-1-propionylpiperazin-2-yl)acetonitrile]
100 to 1000		> 1000	C=C(F)C(=O)N1CCN(c2nc(N3CCC(CN4CCN(Cc5ccc(-n6c(O)nnc6-c6cc(CC)c(O)cc6O)cc5)CC4)CC3)nc3c2CCN(c2cccc4cccc(Cl)c24)C3)C[C@@H]1CC#N [Compound 135, (S)-2-(4-(7-(8-chloronaphthalen-1-yl)-2-(4-((4-(4-(3-(5-ethyl-2,4-dihydroxyphenyl)-5-hydroxy-4H-1,2,4-triazol-4-yl)benzyl)piperazin-1-yl)methyl)piperidin-1-yl)-5,6,7,8-tetrahydropyrido[3,4-d]pyrimidin-4-yl)-1-(2-fluoroacryloyl)piperazin-2-yl)acetonitrile]
100 to 1000		100 to 1000	CCC(=O)N1CCN(c2nc(NCCC(=O)NCCc3ccc(CN4CCC(Cc5ccc(-n6c(C(=O)NCC(F)(F)F)nnc6-c6cc(C(C)C)c(O)cc6O)cc5)CC4)cc3)nc3c2CCN(c2cc(O)cc4ccccc24)C3)CC1 [Compound 149]
100 to 1000		100 to 1000	CCC(=O)N1CCN(c2nc(OCC3CN(C(=O)C4CCN(Cc5ccc(-n6c(O)nnc6-c6cc(C(C)C)c(O)cc6O)cc5)CC4)C3)nc3c2CCN(c2cccc4cccc(Cl)c24)C3)C[C@@H]1CC#N [Compound 146, (S)-2-(4-(7-(8-chloronaphthalen-1-yl)-2-((1-(1-(4-(3-(2,4-dihydroxy-5-isopropylphenyl)-5-hydroxy-4H-1,2,4-triazol-4-yl)benzyl)piperidine-4-carbonyl)azetidin-3-yl)methoxy)-5,6,7,8-tetrahydropyrido[3,4-d]pyrimidin-4-yl)-1-propionylpiperazin-2-yl)acetonitrile]
100 to 1000		> 1000	C=C(F)C(=O)N1CCN(c2nc(OC[C@@H]3CCCN3C(=O)C3CCN(Cc4ccc(-n5c(O)nnc5-c5cc(C(C)C)c(O)cc5O)cc4)CC3)nc3c2CCN(c2cccc4cccc(Cl)c24)C3)C[C@@H]1CC#N [Compound 144, 2-((S)-4-(7-(8-chloronaphthalen-1-yl)-2-(((S)-1-(1-(4-(3-(2,4-dihydroxy-5-isopropylphenyl)-5-hydroxy-4H-1,2,4-triazol-4-yl)benzyl)piperidine-4-carbonyl)pyrrolidin-2-yl)methoxy)-5,6,7,8-tetrahydropyrido[3,4-d]pyrimidin-4-yl)-1-(2-fluoroacryloyl)piperazin-2-yl)acetonitrile]

Reference: patent publication US20230391772A1, “METHODS AND COMPOSITIONS FOR TARGETED PROTEIN DEGRADATION” (Ranok Therapeutics (Hangzhou) Co. Ltd., priority 2020, published 2023)
